Consider 10 compounds from patent US20230250098A1 (priority 2021, published 2023).

The subject of one series is WT mice. The series is described as follows: Locomotor evaluation.
Series [1] deals with C57Bl/6 wild-type mice. Particulars: cited from earlier work; for alcohol consumption, in words (previous reports): dose not stated.
Another series has as its target T1, FLAG-mouse δOP (Mus musculus, UniProt P32300).
T1 construct: FLAG (N); expressed in transfected cells; host or cells: HEK cells (HEK-293), transient transfection together with pGloSensor22F
The series is described as follows: GloSensor cAMP inhibition assay in transfected HEK cells. In kind it is cell-based. The note with it: for cAMP α: efficacy normalized to positive control Leu-Enk; for IC50 / cAMP pIC50: inhibition of forskolin-induced cAMP.

The target in a further series is T2, FLAG-mouse κOP (Mus musculus, UniProt P33534).
T2 construct: FLAG (N); expressed in transfected cells; host or cells: HEK cells, transient transfection together with pGloSensor22F
T2 sequence (P33534 whole entry): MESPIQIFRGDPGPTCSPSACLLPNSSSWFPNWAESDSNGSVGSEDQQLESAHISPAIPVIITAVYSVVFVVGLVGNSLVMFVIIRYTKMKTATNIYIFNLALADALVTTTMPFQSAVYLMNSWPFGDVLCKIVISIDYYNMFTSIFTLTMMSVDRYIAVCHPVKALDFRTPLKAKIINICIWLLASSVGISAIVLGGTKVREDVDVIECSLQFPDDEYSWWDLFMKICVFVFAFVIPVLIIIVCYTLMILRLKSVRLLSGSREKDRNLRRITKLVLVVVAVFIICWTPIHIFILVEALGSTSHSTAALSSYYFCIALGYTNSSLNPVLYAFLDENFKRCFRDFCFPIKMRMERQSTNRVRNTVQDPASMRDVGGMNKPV
The series is classed as cell-based. Particulars: for IC50: read-out: cAMP IC50.

In another series the target is T3, HA-mouse μOP (Mus musculus, UniProt P42866).
T3 construct: HA (N); expressed in transfected cells; host or cells: HEK cells, transient transfection together with pGloSensor22F
T3 sequence (P42866 whole entry): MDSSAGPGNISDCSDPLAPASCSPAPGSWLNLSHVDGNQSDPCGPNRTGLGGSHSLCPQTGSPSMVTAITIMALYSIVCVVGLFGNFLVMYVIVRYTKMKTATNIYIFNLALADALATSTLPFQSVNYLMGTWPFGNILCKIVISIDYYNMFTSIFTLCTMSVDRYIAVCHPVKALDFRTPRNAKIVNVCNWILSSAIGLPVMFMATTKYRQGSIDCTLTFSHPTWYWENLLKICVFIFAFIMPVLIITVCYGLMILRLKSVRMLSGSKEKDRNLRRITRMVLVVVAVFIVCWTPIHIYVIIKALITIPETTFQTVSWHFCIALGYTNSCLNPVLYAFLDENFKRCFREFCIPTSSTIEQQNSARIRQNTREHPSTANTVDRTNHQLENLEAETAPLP
The series is described as follows: GloSensor cAMP inhibition assay in transfected HEK cells. In kind it is cell-based. The note with it: for cAMP α: efficacy normalized to positive control DAMGO; for IC50 / cAMP pIC50: inhibition of forskolin-induced cAMP.

Series [2] deals with C57Bl/6 wild-type mice. The series is described as follows: Two-bottle choice alcohol paradigm (drinking in the dark, 10% ethanol vs water). In kind it is in vivo, mouse.
For a further series, the system named is δOP KO mice. The series is described as follows: Two-bottle choice alcohol paradigm in δOP KO mice. In kind it is in vivo, mouse. The note with it: male δOP KO mice.
For series [3], the target named is T4, δOP (Homo sapiens, UniProt P41143). The series is classed as binding. Set-up: membranes isolated. The note with it: for Binding pKi / Ki: [3H]DPDPE, CHO membranes; for Ki: read-out: Binding Ki.
T4 sequence (P41143 whole entry): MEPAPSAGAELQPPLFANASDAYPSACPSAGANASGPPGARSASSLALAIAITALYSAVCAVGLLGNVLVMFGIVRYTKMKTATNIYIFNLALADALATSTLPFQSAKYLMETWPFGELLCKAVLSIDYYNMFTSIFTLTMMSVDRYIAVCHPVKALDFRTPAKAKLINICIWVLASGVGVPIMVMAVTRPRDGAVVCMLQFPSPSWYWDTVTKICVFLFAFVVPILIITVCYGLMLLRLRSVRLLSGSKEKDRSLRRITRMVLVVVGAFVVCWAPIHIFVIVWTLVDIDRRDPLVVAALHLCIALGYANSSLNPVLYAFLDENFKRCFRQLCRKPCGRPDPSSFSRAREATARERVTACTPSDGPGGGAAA
The target of another series is μOP (Homo sapiens, UniProt P35372). The series is classed as binding. Also noted: membranes isolated. The note with it: for Binding pKi / Ki: [3H]DAMGO, CHO membranes; for Ki: read-out: Binding Ki.
Sequence of μOP (P35372 whole entry): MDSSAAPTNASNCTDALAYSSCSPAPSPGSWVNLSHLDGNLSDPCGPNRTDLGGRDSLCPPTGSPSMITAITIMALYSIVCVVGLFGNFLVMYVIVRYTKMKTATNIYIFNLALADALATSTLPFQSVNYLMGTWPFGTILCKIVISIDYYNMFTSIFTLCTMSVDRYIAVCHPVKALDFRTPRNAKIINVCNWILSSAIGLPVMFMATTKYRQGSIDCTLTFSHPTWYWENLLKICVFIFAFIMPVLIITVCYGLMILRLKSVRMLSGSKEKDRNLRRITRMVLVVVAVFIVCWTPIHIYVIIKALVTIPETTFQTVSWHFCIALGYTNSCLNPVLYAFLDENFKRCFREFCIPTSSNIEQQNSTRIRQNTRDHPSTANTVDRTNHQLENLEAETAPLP
The next series has as its target κOP (Homo sapiens, UniProt P41145). In kind it is binding. The note with it: for Ki: read-out: Binding Ki. Also noted: membranes isolated.
The target of series [4] is T4, δOP. The series is classed as cell-based. The note with it: normalized to positive control Leu-Enk.
The next series relates to male mice. Kind of series: Tail flick thermal nociception assay. In kind it is in vivo, mouse.
The next series relates to male, WT mice. The series is described as follows: Conditioned place preference (brief and extended). The note with it: 10 mg·kg^−1; four conditioning sessions each for drug and vehicle.
The next series concerns wildtype mice. The series is described as follows: Seizure assay (modified racine scale). The note with it: 10 mg·kg^−1.

Entries after “also recorded” stand apart in the source; their conditions may differ. Where a name gives a salt, the structure may show the parent alone.

Sequence of κOP (P41145 whole entry): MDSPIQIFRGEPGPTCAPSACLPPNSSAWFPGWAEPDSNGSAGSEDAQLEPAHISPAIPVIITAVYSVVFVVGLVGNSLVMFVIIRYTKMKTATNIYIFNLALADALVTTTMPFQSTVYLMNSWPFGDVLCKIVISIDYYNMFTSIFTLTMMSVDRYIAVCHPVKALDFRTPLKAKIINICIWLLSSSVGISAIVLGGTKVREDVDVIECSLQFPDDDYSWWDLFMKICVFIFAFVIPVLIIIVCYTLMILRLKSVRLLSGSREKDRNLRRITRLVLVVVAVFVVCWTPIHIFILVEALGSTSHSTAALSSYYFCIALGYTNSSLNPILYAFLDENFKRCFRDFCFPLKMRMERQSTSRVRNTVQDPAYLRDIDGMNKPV
T1 sequence (P32300 whole entry): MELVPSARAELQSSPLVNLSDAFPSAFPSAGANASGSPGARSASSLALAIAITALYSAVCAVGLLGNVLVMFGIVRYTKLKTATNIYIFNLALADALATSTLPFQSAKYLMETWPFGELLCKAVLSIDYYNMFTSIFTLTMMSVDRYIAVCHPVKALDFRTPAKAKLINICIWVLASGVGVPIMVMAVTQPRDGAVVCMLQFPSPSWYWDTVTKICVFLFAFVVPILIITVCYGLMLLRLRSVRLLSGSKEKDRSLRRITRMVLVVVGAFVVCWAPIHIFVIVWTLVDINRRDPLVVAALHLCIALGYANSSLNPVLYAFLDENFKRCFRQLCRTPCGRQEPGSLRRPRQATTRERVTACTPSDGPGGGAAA

In the case of `C=CCN1CC[C@]23c4c5ccc(O)c4O[C@H]2C(=O)CC[C@@]3(O)[C@H]1C5` [naloxone, naloxone hydrochloride], the “block of 7-hydroxymitragynine-induced hyperlocomotion” value with WT mice (dose of naloxone considered to be μOP-selective) is “completely blocked”.
As for `Oc1ccc2c3c1O[C@H]1c4[nH]c5ccccc5c4C[C@@]4(O)[C@@H](C2)N(CC2CC2)CC[C@]314` [naltrindole], in the series with C57Bl/6 wild-type mice [1] (10 mg·kg^−1), the “alcohol intake, in words (previous reports)” value is “not decrease alcohol intake”.
For the compound `C=C[C@H]1CN2CC[C@@]3(O)C(=Nc4cccc(OC)c43)[C@@H]2C[C@@H]1/C(=C\OC)C(=O)OC` [70H PAYN, 7-Hydroxypaynantheine], at FLAG-mouse δOP, the “cAMP α” value is on record as 70 ± 20; the IC50 (in general, the concentration at which inhibition is half-maximal) came to 5740 nM; the “cAMP pIC50” value is on record as 5.2 ± 0.3 (5). The “cAMP inhibition at the κOP, in words” value at FLAG-mouse κOP was “not detected at the tested dose range”. Besides, at HA-mouse μOP, the “cAMP inhibition at the μOP, in words” value is “lowest potency at the μOP; also recorded: reduced μOP potency”; the “cAMP α” value was determined as 80 ± 40; the IC50 is 21800 nM; the “cAMP pIC50” value worked out at 4.7±0.5. Besides, in the series with C57Bl/6 wild-type mice [2] (10 mg·kg^−1 s.c., WT mice, listed as 7-hydroxypaynanthiene), the “ethanol consumption, in words” value is on record as “not 10 mg·kg^−1”. In addition, in the series with C57Bl/6 wild-type mice [2] (30 mg·kg^−1 (7-hydroxypaynantheine s.c., speciociliatine i.p.), WT male mice), the “ethanol consumption, in words” value is recorded as “significantly reduce alcohol intake; also recorded: significantly decreased ethanol consumption”. The “ethanol consumption, in words” value with C57Bl/6 wild-type mice [2] (30 mg·kg^−1 (7-hydroxypaynantheine s.c., speciociliatine i.p.), WT male mice, listed as 7-hydroxypaynanthiene) is “efficacious activity; also recorded: decreased the percent ethanol consumption”. Besides, in the series with C57Bl/6 wild-type mice [2] (30 mg·kg^−1, WT mice), the “average decrease of ethanol consumption” value was 1.1 ± 0.3 g/kg and the “percent reduction of ethanol consumption” value was found to be 40±11%. Besides, the “ethanol consumption in δOP KO mice, in words” value with δOP KO mice (30 mg·kg^−1) is “did not significantly decrease ethanol consumption; also recorded: alcohol consumption was not significantly altered”. Further, on δOP [3], the “δOP binding, in words” value is given as “a magnitude weaker in binding the δOP than 7-hydroxyspeciogynine”; the “Binding pKi” value amounted to 4.9±0.2; the Ki (commonly a measure of affinity in units of concentration, obtained from inhibition or displacement) turned out to be 12700 nM. In addition, at μOP, the “Binding pKi” value is given as 5.2 ± 0.1 (3) and the Ki was 6150 nM. Further, at κOP, the “Binding pKi” value is reported as 5.1 ± 0.1 (3) and the Ki worked out at 7460 nM.
In the case of Leu-enkephalin [reference compound], the “cAMP α” value on FLAG-mouse δOP came to 100. For the same compound, at δOP [4], the “β-arrestin 2 α” value came to 100.
In the case of `CC[C@H]1CN2CCc3c([nH]c4cccc(OC)c34)[C@@H]2C[C@@H]1/C(=C\OC)C(=O)OC` [SPG, speciogynine, reference compound], in the series with C57Bl/6 wild-type mice [2] (systemic (i.p.) injection, modified 2-bottle choice, male C57BL/6 mice, FIG. 1), the “alcohol intake, in words” value is given as “reduce alcohol intake”. On δOP [3], the “Binding pKi” value is reported as 5.1 ± 0.1 (6) and the Ki is 5340 nM. At κOP, the “Binding pKi” value is given as 5.4 ± 0.1 (5) and the Ki came out at 3000 nM.
`COc1ccsc1CNCC[C@@]1(c2ccccn2)CCOC2(CCCC2)C1` [Oliceridine]: the “alcohol consumption, in words (previous reports)” value in the series on C57Bl/6 wild-type mice [1] is reported as “not decrease alcohol consumption”.
As to `CN1CC[C@]2(c3cccc(O)c3)Cc3nc4ccccc4cc3C[C@H]2C1` [TAN-67], the “alcohol consumption, in words (previous reports)” value in the series on C57Bl/6 wild-type mice [1] is on record as “efficaciously reduces alcohol use”.
With `CC[C@H]1CN2CC[C@]3(Nc4cccc(OC)c4C3=O)[C@@H]2C[C@@H]1/C(=C\OC)C(=O)OC` [SPG PI, Speciogynine Pseudoindoxyl], the “cAMP α” value is listed as 80 ± 20 at FLAG-mouse δOP, 80 ± 30 at FLAG-mouse κOP and 58 ± 4 on HA-mouse μOP. The figures for the IC50 against FLAG-mouse δOP, on FLAG-mouse κOP and against HA-mouse μOP were 8530 nM, 20600 nM and 230 nM, respectively. In addition, the “cAMP pIC50” value at FLAG-mouse δOP was 5.1 ± 0.3 (4); on FLAG-mouse κOP, 4.7 ± 0.5 (4); on HA-mouse μOP, 6.6 ± 0.2 (5). The entries for the “Binding pKi” value at δOP [3], on μOP and on κOP were 6.0 ± 0.1 (3), 7.1 ± 0.1 (3) and 6.1 ± 0.1 (3), respectively. Besides, the inhibition constant (Ki) at δOP [3] was 940 nM; on μOP, 77 nM; on κOP, 750 nM.
Consider `C=CC1CN2CCC3(Nc4cccc(OC)c4C3=O)C2CC1C(=COC)C(=O)OC` (centres unmarked) [PAYN PI, Paynantheine Pseudoindoxyl], for which, at HA-mouse μOP, the “cAMP inhibition at the μOP, in words” value was “lowest potency at the μOP”; the “cAMP α” value worked out at 60 ± 6; the IC50 turned out to be 4820 nM; the “cAMP pIC50” value was 5.3 ± 0.2 (4). Further, at δOP [3], the “Binding pKi” value is listed as 6.0 ± 0.1 (3) and the Ki worked out at 920 nM. Further, on μOP, the “Binding pKi” value was 6.2 ± 0.1 (3) and the Ki came to 680 nM. Besides, at κOP, the “Binding pKi” value is on record as 5.9 ± 0.1 (4) and the Ki worked out at 1310 nM.
For the compound `CC[C@H]1CN2CC[C@@]3(O)C(=Nc4cccc(OC)c43)[C@@H]2C[C@@H]1/C(=C\OC)C(=O)OC` [7OH SPG, 7-hydroxyspeciogynine], at FLAG-mouse δOP, the “cAMP inhibition at the δOP, in words” value is recorded as “strongest activator at the δOP”; the “difference in potency at the δOP between 7-hydroxyspeciogynine and 7-hydroxypaynantheine” value worked out at 10 fold; the “cAMP α” value was 76 ± 6; the IC50 stood at 2270 nM. The “cAMP pIC50” value at FLAG-mouse δOP is recorded as 5.6 ± 0.1 (6). In addition, on FLAG-mouse κOP, the “cAMP pIC50” value was 5.1 ± 0.3 (3), the “cAMP α” value is reported as 80 ± 20 and the IC50 amounted to 7710 nM. For the same compound, at HA-mouse μOP, the “cAMP inhibition at the μOP, in words” value is on record as “lowest potency at the μOP; also recorded: reduced μOP potency”; the “cAMP α” value was found to be 66 ± 6; the concentration for half-maximal inhibition (IC50) was 2400 nM; the “cAMP pIC50” value was 6.2±0.3. The “ethanol consumption, in words” value in the series on C57Bl/6 wild-type mice [2] (3 mg·kg^−1 s.c., WT male and female mice) was “reduced alcohol intake; also recorded: efficacious activity; also recorded: dose-dependently decreased ethanol consumption; also recorded: significantly decreased the percent ethanol consumption”. Besides, in the series with C57Bl/6 wild-type mice [2] (10 mg·kg^−1, WT mice), the “average decrease of ethanol consumption” value came to 1.2 ± 0.2 g/kg and the “percent reduction of ethanol consumption” value is recorded as 40±7%. Besides, the “ethanol consumption, in words” value in the series with C57Bl/6 wild-type mice [2] (10 mg·kg^−1 s.c., WT mice) was “reduced alcohol intake; also recorded: dose-dependently decreased ethanol consumption; also recorded: significantly decreased the percent ethanol consumption”. Also, the “ethanol consumption in δOP KO mice, in words” value with δOP KO mice (3 mg·kg^−1) is given as “did not significantly decrease ethanol consumption; also recorded: alcohol consumption was not significantly altered”. In addition, in the series on δOP KO mice (10 mg·kg^−1), the “ethanol consumption in δOP KO mice, in words” value was “did not significantly decrease ethanol consumption; also recorded: alcohol consumption was not significantly altered”. In addition, on δOP [3], the “δOP binding, in words” value was “improved binding relative to speciogynine”; the “Binding pKi” value is 6.3±0.1; the Ki stood at 460 nM. Besides, the “μOP affinity, in words” value on μOP is “strongest μOP affinity”. For the same compound, the “ambulation / locomotor activity” value with WT mice (10 mg·kg^−1) is “did not significantly alter ambulation”. In addition, the “block of morphine analgesia (antagonist mode)” value in the series with male mice (10 mg·kg^−1, then morphine 6 mg·kg^−1 s.c. 10 minutes later) is “did not produce antinociception (paired, two-tailed t-test, t=0.6193, df=9, p=0.5511) or block morphine analgesia”. Besides, the “antinociception (agonist mode)” value with male mice (10 mg·kg^−1, 30 minutes after drug) is recorded as “did not produce antinociception”. In the series with male, WT mice, the “conditioned place preference, extended protocol” value is reported as “did not develop conditioned place preference”. Further, the seizure activity entry in the series on wildtype mice is given as “did not significantly alter ambulation (paired, two-tailed t-test, t=0.7552, df=6, p=0.4787) (FIG. 5B) or induce seizures”. On κOP, the “Binding pKi” value is 5.8 ± 0.2 (3) and the Ki was determined as 1630 nM.
